Columns and labels:
[1] = system: late watergrass; assay: Test Example 1: herbicidal activity, application before weed generation under submerged conditions (Table 16, symbol A); type: in vivo, late watergrass (Echinochloa oryzicola); conditions: amount of applied herbicide 320 g/ha
Procedure, shortened: (§1)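 Alluvial soil was flooded to 4 cm depth, weed seeds were sown mixed and 2.5-leaf rice seedlings were transplanted. On sowing day, the compound's emulsion, diluted in water to a set dose, was applied to the water surface. Plants grew at 25–30 °C and were scored 0–5 after three weeks.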

[2] = system: Japanese bulrush; assay: Test Example 1: herbicidal activity, application before weed generation under submerged conditions (Table 16, symbol B); type: in vivo, Japanese bulrush (Schoenoplectus juncoides); conditions: amount of applied herbicide 320 g/ha
Procedure, shortened: as §1

[3] = system: oval-leafed pondweed; assay: Test Example 1: herbicidal activity, application before weed generation under submerged conditions (Table 16, symbol C); type: in vivo, oval-leafed pondweed (Monochoria vaginalis); conditions: amount of applied herbicide 320 g/ha
Procedure, shortened: as §1

[4] = system: barnyard grass; assay: Test Example 3: herbicidal effect by foliage application, Wagner pot (Table 18, symbol H); type: in vivo, barnyard grass (Echinochloa crus-galli); conditions: 320 g/ha
Procedure, shortened: (§2)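 Plants were sown in alluvial soil held under 0.1–0.5 cm standing water and grown 14 days in a greenhouse at 25–30 °C. An emulsifiable formulation, water-diluted to the set dose, was then sprayed onto the foliage, and effects were scored three weeks later using previously defined criteria.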

[5] = system: Chinese sprangletop; assay: Test Example 3: herbicidal effect by foliage application, Wagner pot (Table 18, symbol D); type: in vivo, chinese sprangletop (Leptochloa chinensis); conditions: 320 g/ha
Procedure, shortened: as §2

[6] = system: rice flat sedge; assay: Test Example 3: herbicidal effect by foliage application, Wagner pot (Table 18, symbol E); type: in vivo, rice flat sedge (Cyperus iria); conditions: 320 g/ha
Procedure, shortened: as §2

[7] = system: southern crabgrass; assay: Test Example 4: herbicidal effect by soil treatment (Table 19, symbol F); type: in vivo, southern crabgrass (Digitaria ciliaris); conditions: amount of applied herbicide 320 g/ha
Procedure, shortened: (§3)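 Scoring uses the grading scale of an earlier test, three weeks post-application. Treatment consists of spraying a diluted emulsion formulation across the surface of sterilized diluvial soil in which seeds are buried near 1.5 cm deep; boxes are kept in a greenhouse between 25° C. and 30° C.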

[8] = system: green foxtail; assay: Test Example 4: herbicidal effect by soil treatment (Table 19, symbol G); type: in vivo, green foxtail (Setaria viridis); conditions: amount of applied herbicide 320 g/ha
Procedure, shortened: as §3

[9] = system: barnyard grass; assay: Test Example 4: herbicidal effect by soil treatment (Table 19, symbol H); type: in vivo, barnyard grass (Echinochloa crus-galli); conditions: amount of applied herbicide 320 g/ha
Procedure, shortened: as §3

[10] = system: wild oat; assay: Test Example 4: herbicidal effect by soil treatment (Table 19, symbol I); type: in vivo, wild oat (Avena fatua); conditions: amount of applied herbicide 320 g/ha
Procedure, shortened: as §3

[11] = system: blackgrass; assay: Test Example 4: herbicidal effect by soil treatment (Table 19, symbol J); type: in vivo, blackgrass (Alopecurus myosuroides); conditions: amount of applied herbicide 320 g/ha
Procedure, shortened: as §3

[12] = system: Italian ryegrass; assay: Test Example 4: herbicidal effect by soil treatment (Table 19, symbol K); type: in vivo, Italian ryegrass (Lolium multiflorum); conditions: amount of applied herbicide 320 g/ha
Procedure, shortened: as §3

[13] = system: windgrass; assay: Test Example 4: herbicidal effect by soil treatment (Table 19, symbol L); type: in vivo, windgrass (Apera spica-venti); conditions: amount of applied herbicide 320 g/ha
Procedure, shortened: as §3

[14] = system: velvetleaf; assay: Test Example 4: herbicidal effect by soil treatment (Table 19, symbol M); type: in vivo, velvetleaf (Abutilon theophrasti); conditions: amount of applied herbicide 320 g/ha
Procedure, shortened: as §3

[15] = system: redroot pigweed; assay: Test Example 4: herbicidal effect by soil treatment (Table 19, symbol N); type: in vivo, redroot pigweed (Amaranthus retroflexus); conditions: amount of applied herbicide 320 g/ha
Procedure, shortened: as §3

[16] = system: lambsquarters; assay: Test Example 4: herbicidal effect by soil treatment (Table 19, symbol O); type: in vivo, lambsquarters (Chenopodium album); conditions: amount of applied herbicide 320 g/ha
Procedure, shortened: as §3

[17] = system: chickweed; assay: Test Example 4: herbicidal effect by soil treatment (Table 19, symbol P); type: in vivo, common chickweed (Stellaria media); conditions: amount of applied herbicide 320 g/ha
Procedure, shortened: as §3

[18] = system: false cleavers; assay: Test Example 4: herbicidal effect by soil treatment (Table 19, symbol Q); type: in vivo, false cleavers (Galium spurium); conditions: amount of applied herbicide 320 g/ha
Procedure, shortened: as §3

[19] = system: persian speedwell; assay: Test Example 4: herbicidal effect by soil treatment (Table 19, symbol R); type: in vivo, Persian speedwell (Veronica persica); conditions: amount of applied herbicide 320 g/ha
Procedure, shortened: as §3

[20] = system: southern crabgrass; assay: Test Example 5: herbicidal effect by foliage application, plastic box (Table 20, symbol F); type: in vivo, southern crabgrass (Digitaria ciliaris); conditions: foliage application, 320 g/ha, three weeks after application
Procedure, shortened: (§4)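 Post-emergence foliar test in sterilized diluvial soil. Compound applied as water-diluted emulsion at a predetermined rate to 14-day-old plants; evaluation at three weeks.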

[21] = system: green foxtail; assay: Test Example 5: herbicidal effect by foliage application, plastic box (Table 20, symbol G); type: in vivo, green foxtail (Setaria viridis); conditions: foliage application, 320 g/ha, three weeks after application
Procedure, shortened: as §4

[22] = system: barnyard grass; assay: Test Example 5: herbicidal effect by foliage application, plastic box (Table 20, symbol H); type: in vivo, barnyard grass (Echinochloa crus-galli); conditions: foliage application, 320 g/ha, three weeks after application
Procedure, shortened: as §4

[23] = system: wild oat; assay: Test Example 5: herbicidal effect by foliage application, plastic box (Table 20, symbol I); type: in vivo, wild oat (Avena fatua); conditions: foliage application, 320 g/ha, three weeks after application
Procedure, shortened: as §4

[24] = system: blackgrass; assay: Test Example 5: herbicidal effect by foliage application, plastic box (Table 20, symbol J); type: in vivo, blackgrass (Alopecurus myosuroides); conditions: foliage application, 320 g/ha, three weeks after application
Procedure, shortened: as §4

[25] = system: Italian ryegrass; assay: Test Example 5: herbicidal effect by foliage application, plastic box (Table 20, symbol K); type: in vivo, Italian ryegrass (Lolium multiflorum); conditions: foliage application, 320 g/ha, three weeks after application
Procedure, shortened: as §4

[26] = system: windgrass; assay: Test Example 5: herbicidal effect by foliage application, plastic box (Table 20, symbol L); type: in vivo, windgrass (Apera spica-venti); conditions: foliage application, 320 g/ha, three weeks after application
Procedure, shortened: as §4

[27] = system: velvetleaf; assay: Test Example 5: herbicidal effect by foliage application, plastic box (Table 20, symbol M); type: in vivo, velvetleaf (Abutilon theophrasti); conditions: foliage application, 320 g/ha, three weeks after application
Procedure, shortened: as §4

[28] = system: redroot pigweed; assay: Test Example 5: herbicidal effect by foliage application, plastic box (Table 20, symbol N); type: in vivo, redroot pigweed (Amaranthus retroflexus); conditions: foliage application, 320 g/ha, three weeks after application
Procedure, shortened: as §4

[29] = system: lambsquarters; assay: Test Example 5: herbicidal effect by foliage application, plastic box (Table 20, symbol O); type: in vivo, lambsquarters (Chenopodium album); conditions: foliage application, 320 g/ha, three weeks after application
Procedure, shortened: as §4

[30] = system: chickweed; assay: Test Example 5: herbicidal effect by foliage application, plastic box (Table 20, symbol P); type: in vivo, common chickweed (Stellaria media); conditions: foliage application, 320 g/ha, three weeks after application
Procedure, shortened: as §4

[31] = system: false cleavers; assay: Test Example 5: herbicidal effect by foliage application, plastic box (Table 20, symbol Q); type: in vivo, false cleavers (Galium spurium); conditions: foliage application, 320 g/ha, three weeks after application
Procedure, shortened: as §4

[32] = system: persian speedwell; assay: Test Example 5: herbicidal effect by foliage application, plastic box (Table 20, symbol R); type: in vivo, Persian speedwell (Veronica persica); conditions: foliage application, 320 g/ha, three weeks after application
Procedure, shortened: as §4

With CCCC(=O)Oc1c(C)nn(C)c(=O)c1-c1c(-c2ccc(F)cc2OC)sc2cc(Cl)ccc12 [3-044] the “Herbicidal effect, A: late watergrass” value [1] was 3 (Herbicidal rate of 40% or more and less than 70%), the “Herbicidal effect, B: Japanese bulrush” value [2] was 0 (Herbicidal rate of 5% or less (almost no effect)) and the “Herbicidal effect, C: oval-leafed pondweed” value [3] was 0 (Herbicidal rate of 5% or less (almost no effect)). For the same molecule, the “herbicidal effect on barnyard grass (H)” value [4] was 5 (Herbicidal rate of 90% or more (almost completely withered)), the “herbicidal effect on Chinese sprangletop (D)” value [5] was 0 (Herbicidal rate of 5% or less (almost no effect)) and the “herbicidal effect on rice flat sedge (E)” value [6] was 3 (Herbicidal rate of 40% or more and less than 70%). The “F: southern crabgrass, herbicidal effect grade” value [7] was 1 (Herbicidal rate of 5% or more and less than 20%), the “G: green foxtail, herbicidal effect grade” value [8] was 1 (Herbicidal rate of 5% or more and less than 20%) and the “H: barnyard grass, herbicidal effect grade” value [9] was 3 (Herbicidal rate of 40% or more and less than 70%). For the same molecule, the “I: wild oat, herbicidal effect grade” value [10] was 0 (Herbicidal rate of 5% or less (almost no effect)), the “J: blackgrass, herbicidal effect grade” value [11] was 0 (Herbicidal rate of 5% or less (almost no effect)) and the “K: Italian ryegrass, herbicidal effect grade” value [12] was 0 (Herbicidal rate of 5% or less (almost no effect)). For the same molecule, the “L: windgrass, herbicidal effect grade” value [13] was 3 (Herbicidal rate of 40% or more and less than 70%), the “M: velvetleaf, herbicidal effect grade” value [14] was 2 (Herbicidal rate of 20% or more and less than 40%) and the “N: redroot pigweed, herbicidal effect grade” value [15] was 4 (Herbicidal rate of 70% or more and less than 90%). For the same molecule, the “O: lambsquarters, herbicidal effect grade” value [16] was 4 (Herbicidal rate of 70% or more and less than 90%), the “P: chickweed, herbicidal effect grade” value [17] was 4 (Herbicidal rate of 70% or more and less than 90%) and the “Q: false cleavers, herbicidal effect grade” value [18] was 4 (Herbicidal rate of 70% or more and less than 90%). For the same molecule, the “R: persian speedwell, herbicidal effect grade” value [19] was 3 (Herbicidal rate of 40% or more and less than 70%), the “F: southern crabgrass, herbicidal effect grade” value [20] was 3 (Herbicidal rate of 40% or more and less than 70%) and the “G: green foxtail, herbicidal effect grade” value [21] was 4 (Herbicidal rate of 70% or more and less than 90%). The “H: barnyard grass, herbicidal effect grade” value [22] was 5 (Herbicidal rate of 90% or more (almost completely withered)), the “I: wild oat, herbicidal effect grade” value [23] was 4 (Herbicidal rate of 70% or more and less than 90%) and the “J: blackgrass, herbicidal effect grade” value [24] was 5 (Herbicidal rate of 90% or more (almost completely withered)). The “K: Italian ryegrass, herbicidal effect grade” value [25] was 0 (Herbicidal rate of 5% or less (almost no effect)), the “L: windgrass, herbicidal effect grade” value [26] was 5 (Herbicidal rate of 90% or more (almost completely withered)) and the “M: velvetleaf, herbicidal effect grade” value [27] was 4 (Herbicidal rate of 70% or more and less than 90%). For the same molecule, the “N: redroot pigweed, herbicidal effect grade” value [28] was 3 (Herbicidal rate of 40% or more and less than 70%), the “O: lambsquarters, herbicidal effect grade” value [29] was 3 (Herbicidal rate of 40% or more and less than 70%) and the “P: chickweed, herbicidal effect grade” value [30] was 5 (Herbicidal rate of 90% or more (almost completely withered)). For the same molecule, the “Q: false cleavers, herbicidal effect grade” value [31] was 4 (Herbicidal rate of 70% or more and less than 90%) and the “R: persian speedwell, herbicidal effect grade” value [32] was 3 (Herbicidal rate of 40% or more and less than 70%).
